This passage reports IC50 results from patent US20200095296A1, “USE OF PEPTIDES AS BIOMARKERS IN THE DIAGNOSIS, CONFIRMATION AND TREATMENT OF A NEUROLOGICAL DISORDER AND TCR AND/OR HLA IMMUNOPROFILING IN NEURODEGENERATIVE DISEASE” (THE TRUSTEES OF COLUMBIA UNIVERSITY IN THE CITY OF NEW YORK, priority 2017, published 2020).

Structures are written as SMILES. Like-named read-outs stand apart in the source and are kept apart here.

The IC50 is the concentration that gives 50% inhibition.

Experiment [1] has as its target DRB5*01:01 (Homo sapiens, UniProt P01903+Q30154). The experiment is described as follows: competition binding assay, purified HLA DRB5*01:01.
The target in experiment [2] is T1, DPB1*04:01 (Homo sapiens, UniProt P04440).
T1 sequence (P04440 30-258): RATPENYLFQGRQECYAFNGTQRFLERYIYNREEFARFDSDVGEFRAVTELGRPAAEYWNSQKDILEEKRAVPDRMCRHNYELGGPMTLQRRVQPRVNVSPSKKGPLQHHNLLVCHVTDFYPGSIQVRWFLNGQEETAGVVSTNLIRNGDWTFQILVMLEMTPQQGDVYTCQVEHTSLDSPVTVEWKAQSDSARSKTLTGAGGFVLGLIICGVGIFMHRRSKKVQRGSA
T1 sequence (P20036 29-260 partner): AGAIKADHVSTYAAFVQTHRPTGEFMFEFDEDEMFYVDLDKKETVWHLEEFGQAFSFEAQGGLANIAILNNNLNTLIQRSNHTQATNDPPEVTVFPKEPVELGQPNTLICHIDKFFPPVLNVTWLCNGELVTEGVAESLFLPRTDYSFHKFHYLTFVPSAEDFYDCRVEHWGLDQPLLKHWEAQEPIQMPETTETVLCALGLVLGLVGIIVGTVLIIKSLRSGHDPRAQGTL
Briefly: competition binding assay, purified HLA DPB1*04:01.

The target of experiment [3] is DRB1*09:01 (Homo sapiens, UniProt P01903+P01911, A100R/A103E/D57H/D86V/F55Y/F60I/F76Y/I96F/K127E/L162R/M171V/P40D/Q125H/Q99R/R33Q/R42F/S133A/S66N/T210M/V115G/W38K/Y107V/Y59G/Y89S). Briefly: competition binding assay, purified HLA DRB1*09:01.
Experiment [4] concerns the target DRB3*01:01 (Homo sapiens, UniProt P01903+P79483). The experiment is described as follows: competition binding assay, purified HLA DRB3*01:01. The conditions noted are these: radiolabeled peptide competition, nM.
For experiment [5], the target named is DRB1*04:01 (Homo sapiens, UniProt P01903+P01911, A100K/A169T/F76Y/I96L/K127E/L162R/M171V/N62H/P40V/Q125Y/R42H/S133A/S149N/S66Y/V115G/V209L/W38E). The experiment is described as follows: competition binding assay, purified HLA DRB1*04:01. The settings on record: radiolabeled peptide competition, nM.
The target in experiment [6] is DRB1*11:01 (Homo sapiens, UniProt P01903+P01911, A100R/A169T/A87E/I96F/K41T/L162R/M171V/P40S/Q125H/Q178H/Q39Y/Q99D/R42S/S66Y/T262R/V115G/W38E). Briefly: competition binding assay, purified HLA DRB1*11:01.
The target of experiment [7] is DRB1*15:01 (Homo sapiens, UniProt P01903+P01911). Briefly: competition binding assay, purified HLA DRB1*15:01.
The mark [8] stands for this setting: purified HLA, radiolabeled peptide competition, nM, read-out: binding to DRB5*01:01 (IC50).
The mark [9] stands for this setting: purified HLA, radiolabeled peptide competition, nM, read-out: binding to DRB1*09:01 (IC50).
[10] abbreviates: purified HLA, radiolabeled peptide competition, nM, read-out: binding to DRB1*11:01 (IC50).

Regarding `CSCC[C@H](NC(=O)[C@@H](N)CCC(=O)O)C(=O)N1CCC[C@H]1C(=O)N[C@@H](COP(=O)(O)O)C(=O)N[C@@H](CCC(=O)O)C(=O)N[C@@H](CCC(=O)O)C(=O)NCC(=O)N[C@@H](Cc1ccc(O)cc1)C(=O)N[C@@H](CCC(N)=O)C(=O)N[C@@H](CC(=O)O)C(=O)N[C@@H](Cc1ccc(O)cc1)C(=O)N[C@@H](CCC(=O)O)C(=O)N1CCC[C@H]1C(=O)N[C@@H](CCC(=O)O)C(=O)N[C@@H](C)C(=O)O`, the concentration for half-maximal inhibition (IC50) in experiment [1] (setting [8]) was greater than 10000 nM; in experiment [2], greater than 10000 nM; in experiment [3] (setting [9]), greater than 10000 nM; in experiment [4] it was greater than 10000 nM; in experiment [5], 4950 nM; in experiment [6] (setting [10]), greater than 10000 nM.

For the compound `CSCC[C@H](NC(=O)[C@H](CCC(=O)O)NC(=O)[C@H](Cc1ccc(O)cc1)NC(=O)[C@H](C)NC(=O)[C@H](CCC(=O)O)NC(=O)[C@H](CC(N)=O)NC(=O)[C@@H](N)CC(=O)O)C(=O)N1CCC[C@H]1C(=O)N[C@@H](COP(=O)(O)O)C(=O)N[C@@H](CCC(=O)O)C(=O)N[C@@H](CCC(=O)O)C(=O)NCC(=O)N[C@@H](Cc1ccc(O)cc1)C(=O)N[C@@H](CCC(N)=O)C(=O)N[C@@H](CC(=O)O)C(=O)O`, the IC50 in experiment [1] (setting [8]) is greater than 10000 nM; in experiment [2] (purified HLA, radiolabeled peptide competition, nM, read-out: binding to DPB1*04:01 (IC50)) it was greater than 10000 nM; in experiment [3] (setting [9]), greater than 10000 nM; in experiment [4] it was 9180 nM; in experiment [7] (purified HLA, radiolabeled peptide competition, nM, read-out: binding to DRB1*15:01 (IC50)) it was greater than 10000 nM; in experiment [5] it was 9130 nM. In addition, the IC50 in experiment [6] (setting [10]) is greater than 10000 nM.

As to `CSCC[C@H](NC(=O)[C@H](CCC(=O)O)NC(=O)[C@H](Cc1ccc(O)cc1)NC(=O)[C@H](C)NC(=O)[C@H](CCC(=O)O)NC(=O)[C@H](CC(N)=O)NC(=O)[C@@H](N)CC(=O)O)C(=O)N1CCC[C@H]1C(=O)N[C@@H](CO)C(=O)N[C@@H](CCC(=O)O)C(=O)N[C@@H](CCC(=O)O)C(=O)NCC(=O)N[C@@H](Cc1ccc(O)cc1)C(=O)N[C@@H](CCC(N)=O)C(=O)N[C@@H](CC(=O)O)C(=O)O`, the concentration for half-maximal inhibition (IC50) in experiment [1] was greater than 10000 nM; in experiment [2], greater than 10000 nM; in experiment [3], 4600 nM; in experiment [7], greater than 10000 nM; in experiment [6], greater than 10000 nM.
